Experimental data: patent US10793601B2, “Therapeutic spalt-like transcription factor 4 (SALL4) peptide” (National University of Singapore, priority 2016, dated 2020)
“And” between values parts separate entries of the source, which are not always exact repeats. Equal entries are not always repeated. Ends that are not written are not given here.

Tests used:
[1] = test system: SNU398; test: RNA-seq transcriptome analysis of treated SNU398; format: cell-based; details: SNU398 treated 8 hrs
Method: SNU398 were treated PEN, PEN-MUT, PEN-WT & PEN-FFW for 8 hrs and paired-end RNA-seq was performed for the treated samples. RNA-seq reads of each sample were mapped to hg19 using the STAR aligner. Normalization between the samples was based on the proportionality of the numbers of the mapped reads. The expression fold change of a transcript was obtained using linear regression of the reads between the two samples cross all exons. Differential expression between two samples was selected by using the fold change cut off of 2. Hierarchical clustering was performed based on average linkage to generate the clustering tree as well as heat maps. For identification of enriched gene sets or pathways, Gene Set Enrichment Analysis (GSEA) was performed based on the normalized data and using the GSEA tool (broad.mit.edu/gsea/) with msigdb.v5.0.

[2] = test system: SNU398 cells; test: Cell viability assay in SNU398 cells; format: cell-based; details: ratio of EC50, SNU398
Method: FIGS. 3A-3E. Key residues involved in SALL4 (1-12)-RBBp4 binding. […] The difference in the binding free energy (ΔΔGbind) of the alanine mutants (ΔGmutant, Ala7 was mutated to glycine) and wild type (ΔGwild type) was calculated (ΔΔGbind=ΔGmutant−ΔGwild type). ΔΔGbind was tabulated (left) and plotted in a bar chart (right). […] Mutated residues are highlighted in red. The IC50 of each peptide, including WT, was determined by Fluorescence Polarization (FP). Different concentrations of each peptide were titrated into a mixture of 0.04 μM RBBp4 and 0.01 μM of C-labelled FITC-SALL4 WT peptide. Polarization was measured in mP. […] Pep-1 carrier was added to the peptide to facilitate cellular penetration of the peptides.
FIGS. 5A-5B. Development of a potent therapeutic peptide FFW.
SNU398 was grown in RPMI supplemented with 10% fetal bovine serum (FBS) at 37° C. in a humidified atmosphere of 5% CO2. 3000 cells were seeded in each well of a 96 well plate with 100 μL of medium. Before peptide treatment, cells were washed twice with PBS and treated with different concentrations of peptide in OPTIMEM (LifeTech). Media was added after 4 hrs of incubation at 37° C., and cells incubated for another 68 hrs. Tetrazolium (CellTiter96 AQueous One Solution Cell Proliferation Assay, Promega) was added after 72 hrs incubation with the peptides, and the plate was read at a plate reader at 490 nm after 1 hr of incubation in the dark at 37° C.

[3] = in vitro; details: human, plasma, pH 7.4
Method: PEN-FFW was incubated with human plasma (pH7.4) at 37° C. over a 24 hour period (5 timepoints). Incubations were performed at a concentration of 1 μM (final DMSO concentration 2.5%). Reactions were terminated at 0, 5, 10, 15, 30 min, or 0, 1, 2, 4 and 24 hour, by addition of 2 volumes of methanol containing 1% Formic acid. The samples were centrifuged (2500 rpm, 45 min, 4° C.) and the supernatants diluted with 2 volumes of 0.2% Formic acid (aq) (containing Metoprolol (internal standard)). […] The percentage of parent peptide remaining at each time point relative to the 0 min sample was calculated from LC-MS/MS peak area ratios (compound peak area/internal standard peak area).

[4] = mouse, in vivo
Method: (§1) Mice were exposed to intraperitoneal (IP) administration of PEN-FFW (30 mg/kg) or vehicle (10% DMSO) every alternate day over the course of 17 days to a cumulative dose of 270 mg/kg.
(§2) Toxicity of PEN-FFW was studied in vivo in C57BL/6 mice (n=4). Theses mice were exposed to intraperitoneal (IP) administration of PEN-FFW (30 mg/kg) or vehicle (10% DMSO) every alternate day over the course of 17 days to a cumulative dose of 270 mg/kg. […] After a 7-day washout period, complete blood counts and liver function assay tests were performed, and organs were harvested for histology. Potential liver injury caused by the peptide treatment was studied by testing serum AST (Aspartate Aminotransferase) and ALT (Alanine Aminotransferase) levels.
(§3) 6-8-week old female C57BL mice were given PEN-FFW (30 mg/kg) (n=3) or DMSO control (n=2) every alternate day, for a total of 17 day, to a cumulative dose of 270 mg/kg. The mice were observed and weighted throughout the period. A 7 days wash out period were given before the mice were sacrificed with their blood and organs collected. Blood count were perform immediately with Celltact MEK6450 (Nihon Kohden, Japan), and serum were subjected for ALT and AST assay on the same day. ALT and AST were performed according to the manufacturer's protocol (Sigma-Aldrich, Merck, Germany). The organs were fixed with neutral buffered Formalin and embedded in paraffin. […]

[5] = test system: SNU398 tumor xenografts; test: SNU398 xenograft in NSG mice; format: in vivo, NOD/SCID/gamma mice
Method: FIGS. 7A-7E. […] FIG. 7A: 7.2×10^5 SNU398 cells were inoculated subcutaneously into the right flank of NOD/SCID/gamma mice (NSG mice). Tumors were allowed to grow for one week before peptide treatments were administered every alternate day for a total of five injections. FIG. 7B: Tumor growth was documented by plotting tumor volume against time. […] FIG. 7C: Relative size of tumors resected on day 20. FIG. 7D: tumor weight was determined (n=5). […] FIG. 7E: Total RNA was isolated from the resected tumors and expression of PTEN was measured using real-time PCR.
FIGS. 9A-9E. […] FIG. 9A: PEN-FFW treated SNU398 tumor xenografts were compared to that of Sorafenib treated xenografts. FIG. 9B: PEN-FFW treated PLC8024 tumor xenografts were compared to that of Sorafenib treated xenografts. Mice body weight was measured to access toxicity of various peptides. FIG. 9C: Body weight of mice at day 17. FIG. 9D: Differences of body weight compared to day 0 (As indicated by the arrow in far left of FIG. 7A). FIG. 9E: Body weight of mice at day 19th in the experiment shown in FIG. 9A comparing effect of Sorafenib and PEN-FFW. Data represent mean±s.d. (n=5).
All mice were treated in accordance with Responsible Care and Use of Laboratory animals. In the SNU398 in vivo studies, 6-8-week-old female C.B-17 severe combined immunodeficient (SCID) mice (NSG) were inoculated s.c. into the flank with 7.2×10^5 cells in 2:1 PBS/Matrigel (BD Biosciences). The tumours were then allowed to develop to the size of 50-70 mm3 before intraperitoneal injections of the different peptides were given at two to three-day intervals for a total of 5 injections. Mice were randomly grouped in sets of six and treated with PEN (penetratin control), PEN-MUT (mutant control), PEN-WT (wild type control) and PEN-FFW (peptide 47). Tumor volumes were measured every 5 days and tumor weight were measured at the end point. For PEN control, 22.5 mg/kg were given; for PEN-MUT, PEN-WT and PEN-FFW, 35.6 mg/kg, 37 mg/kg and 36 mg/kg were given respectively to the mice according to their body weight Tumor measurements were taken twice weekly using Vernier calipers. Tumor volume was estimated using the following formula: V=0.5×width×width×length. When tumors approached ˜50 mm3, mice were randomized into groups of 5 animals each and received peptides treatment three times weekly by i.p. injection. All statistical analysis was done using a one-way ANOVA and Student's T-test.

[6] = test system: PLC8024 tumor xenografts; test: PLC8024 xenograft (Sorafenib-resistant HCC); format: in vivo, mice
Method: FIGS. 9A-9E. Clinical significance of PEN-FFW compared to Sorafenib. FIG. 9A: PEN-FFW treated SNU398 tumor xenografts were compared to that of Sorafenib treated xenografts. FIG. 9B: PEN-FFW treated PLC8024 tumor xenografts were compared to that of Sorafenib treated xenografts. Mice body weight was measured to access toxicity of various peptides. FIG. 9C: Body weight of mice at day 17. FIG. 9D: Differences of body weight compared to day 0 (As indicated by the arrow in far left of FIG. 7A). FIG. 9E: Body weight of mice at day 19th in the experiment shown in FIG. 9A comparing effect of Sorafenib and PEN-FFW. Data represent mean±s.d. (n=5).
Clinical significance of PEN-FFW was studied in vivo by benchmarking against current therapy using Sorafenib. PEN-FFW treated SNU398 tumor xenografts were compared to that of Sorafenib treated xenografts (FIG. 9A). […] Potential therapeutic effect of PEN-FFW in HCC patients that are refractory to Sorafenib treatment was studied also studied in vivo. using a HCC cell line, PLC8024 which is SALL4 positive, CD133+ and is both chemo- and radio-resistant (Li et al., BMC Cancer 2016, 16, 15; Ma et al., Oncogene 2008, 27: 1749-1758), for the xenograft study.

[7] = Toxicity study, repeated IP administration; details: 30 mg/kg IP every alternate day, 17 days, cumulative 270 mg/kg
Method: as §1, §2, §3

RQIKIWFQNRRMKWKKRRKFAKFQWI [PEN-FFW]
share of DEGs upregulated [1]: more than 99% | improvement as compared with PEN-WT [2]: 4 fold | remaining at 0.5 h, 1 μM [3]: > 90% | remaining at 4 h, 1 μM [3]: > 50% | remaining at 24 h, 1 μM [3]: ~20% | tissue damage by microscopic examination of major organs [4]: No tissue damage was observed | anti-tumor activity benchmarked against Sorafenib ([5]; SNU398 xenograft, compared to vehicle treated groups): stronger anti-tumor activity than Sorafenib | effect on tumor growth ([5]; SNU398 xenograft, tumor volume against time): significant reduced growth rate | tumor weight ([5]; mean, tumors resected on day 20, five i.p. injections): 88.34 mg and 88 mg | tumor inhibitory effect [6]: minimal tumor inhibitory effect | signs of toxicity (weight loss, lethargy, loss of mobility) [7]: did not exhibit notable signs of toxicity
